The NIST ThermoML archive (doi:10.1016/j.jct.2016.12.015)

Test: molar heat capacity at constant pressure
Conditions: 101.33 kPa, Crystal, Small (less than 1 g) adiabatic calorimetry

C[C@H]1C[C@@H]2[C@H]([C@@H](O)C[C@@]3(C)[C@H]2CC[C@]3(O)C(=O)CO)[C@@]2(C)C=CC(=O)C=C12 [Methylprednisolone]
Conditions | molar heat capacity at constant pressure [J/K/mol]
5 K | 0.981
6.33 K | 2.001
6.49 K | 2.141
6.65 K | 2.26
6.78 K | 2.357
6.95 K | 2.495
7.1 K | 2.55
7.24 K | 2.74
7.49 K | 3.021
7.82 K | 3.43
8.13 K | 3.81
8.44 K | 4.275
8.75 K | 4.579
9.05 K | 4.913
9.36 K | 5.269
9.69 K | 5.653
10 K | 6.06
10.01 K | 6.058
10.33 K | 6.528
10.66 K | 6.921
11 K | 7.373
11.38 K | 7.86
11.77 K | 8.373
12.06 K | 8.762
12.88 K | 9.96
14.16 K | 11.96
15 K | 13.31
15.44 K | 14.15
16.74 K | 16.54
18.07 K | 19.18
19.43 K | 21.92
20 K | 22.8
22.43 K | 28.16
25 K | 33.3
25.22 K | 33.67
28.44 K | 39.96
30 K | 42.63
31.97 K | 46.03
35 K | 51.54
35.53 K | 52.34
39.09 K | 58.93
40 K | 60.39
42.67 K | 65.35
45 K | 69.3
46.26 K | 71.33
49.86 K | 77.8
50 K | 78.27
53.45 K | 84.8
57.05 K | 91.01
60 K | 96.39
60.67 K | 97.6
64.3 K | 104
67.91 K | 110.8
70 K | 114.2
71.53 K | 116.8
75.17 K | 122.4
78.82 K | 129.7
80 K | 131.5
81.9 K | 134.6
82.48 K | 136
86.1 K | 142.8
86.12 K | 142.4
89.32 K | 147.8
90 K | 149.3
92.91 K | 154.1
96.5 K | 159.9
100 K | 165.9
100.08 K | 165.8
103.66 K | 171.9
107.23 K | 178
110 K | 182.1
110.81 K | 183.4
114.37 K | 188.6
117.93 K | 195.4
120 K | 198.1
121.48 K | 200.9
125.04 K | 206.7
128.59 K | 212
130 K | 213.9
132.14 K | 217.1
135.68 K | 222.2
139.22 K | 228.2
140 K | 229.6
142.74 K | 233.6
146.27 K | 238.8
149.79 K | 244.2
150 K | 245
153.3 K | 250
156.82 K | 254.9
160 K | 260.2
160.33 K | 260.9
163.83 K | 266.4
167.33 K | 271.7
170 K | 275.3
170.82 K | 276.8
174.31 K | 282.2
177.79 K | 287.2
180 K | 290.3
181.26 K | 292.5
184.73 K | 297.4
188.19 K | 302.5
190 K | 305.3
191.65 K | 307.8
195.06 K | 312.7
198.5 K | 318.2
200 K | 320.4
201.93 K | 323.6
205.36 K | 328.5
208.8 K | 333.1
210 K | 335.6
212.23 K | 338.2
215.66 K | 343.7
219.09 K | 349.3
220 K | 350.7
222.53 K | 355
225.95 K | 361
229.38 K | 364.2
230 K | 365.9
232.82 K | 370.1
236.24 K | 375.2
239.67 K | 380.7
240 K | 381.1
243.1 K | 385.9
246.53 K | 391.1
249.92 K | 396.2
250 K | 396.3
253.35 K | 401.5
256.77 K | 406.9
260 K | 411.6
260.19 K | 412
263.6 K | 417.5
267.02 K | 422.9
270 K | 427.1
270.43 K | 428.4
273.84 K | 432.9
277.25 K | 438.4
280 K | 442.9
280.64 K | 443.7
284.03 K | 449
287.42 K | 454
290 K | 458.9
290.79 K | 460.1
294.15 K | 465.4
297.51 K | 471.2
298.15 K | 472.1
300 K | 475.1
300.85 K | 475.9
304.09 K | 481.9
307.42 K | 487.8
310 K | 491.2
310.76 K | 492.9
314.09 K | 498.1
317.42 K | 503
320 K | 507
320.76 K | 508
324.1 K | 513.3
327.44 K | 518.2
330 K | 522.5
330.78 K | 523.9
334.13 K | 529
337.48 K | 534
340 K | 538.4
340.82 K | 539.6
344.16 K | 545.9
347.5 K | 551.7
350 K | 556.8
350.09 K | 556.9
